The record followed here is patent EP4050002A1, “ANTI-PROLIFERATIVE AGENTS” (First Health Pharmaceuticals B.V., priority 2021, dated 2022).

Usually IC50 stands for the concentration that gives 50% inhibition. A low value points to higher potency.

Experiment [1] has as its system A549 Red-FLuc. The experiment can be described thus: Cytotoxicity, cell count method. The format is cell-based. Conditions: Homo sapiens, 72 hours of incubation. As for the experimental part:
The anti-tumor activity of the compounds of the present invention was evaluated as the effect on the proliferation and survival of tumor cells by counting the number of living cells in presence or absence of the compounds ("cell count method"), and as the effect on the viability and metabolic activity of the cells, by using particular substrates that are converted by cellular enzymes into coloured or luminescent products, proportionally with metabolic activity and state of the cell, such as the MTS tetrazolium compound ("MTS method") or luciferin ("ATP-based method") respectively.
Cells were seeded at 3 to 5 x 10^4 cells/well density depending on cell lines and maintained at 37°C in 5% CO2. After 24 hours cells were treated with ascending concentrations of the investigational compounds and the reference (5-fluoro-Uracyl) in a range from 0 to 100 µM. Compounds were dissolved in DMSO which final concentration in each well was 0.5% v:v. After 72 h of incubation with compounds, the cells were detached with trypsin and re-suspended in 1 ml of complete medium; the cell number was evaluated using a Z2 Coulter Counter ("cell count method") (Attallah and Johnson, A simple highly sensitive methods for the determination of cell viability using an electronic particle analyzer, Coulter counter J. Immunol. Methods. 1981, 41, 155; Leonardi et al., Activated kinase screening identifies the IKBKE oncogene as a positive regulator of autophagy. Autophagy, 2019, 15, 312). Alternatively, after the 72 hours of incubation with compounds, the MTS solution (CellTiter 96® AQueous One Solution Cell Proliferation Assay) is added to each well and absorbance at 490 nm wavelength is read after 2 hours of incubation ("MTS method"). Results in Tables 8-13, 17, 18 were obtained with the cell count method. Results in Tables 14-15 were obtained with the MTS method. Results in Table 16 were obtained with ATP-based method.

For experiment [2], the target named is DDX3X (Homo sapiens, UniProt O00571). The experiment can be described thus: Helicase assay (unwinding of 18/36mer dsRNA). It is filed as biochemical. The arrangement: host or cells: 293T cells (transient transfection, anti-HA immunoprecipitation, protein kept on beads). As to conditions: 50, 250 and 500 µM, in presence of ATP. As for the experimental part: The DDX3X protein was obtained by immunoprecipitation from 293T cells (3x10^5) were seeded in 6-well plates and, after 24h, transfected with 1 µg of HA-DDX3 (Addgene plasmid # 44975) by using the Lipofectamine reagent (Thermo Fischer Scientific). After 36 h, cells were lysed in NP-40 Lysis Buffer (20 mM HEPES pH=7.5, 10 mM EGTA pH=8, 40 mM β-glycerolphosphate, 1% NP40, 2.5 mM MgCl2, 2 mM Orthovanadate, 2 mM NaF, 1 mM DTT, and 1X protease inhibitors mixture) and 2 mg of proteins were immunoprecipitated with anti-HA antibodies (Covance) in NP40 lysis buffer. Immunoprecipitated samples were washed twice with lysis buffer and one time in helicase reaction buffer (50 mM Tris HCl pH=8, 1 mM DTT, 5% glycerol, 10 mM MgCl2). Beads were then resuspended in 100 µl in helicase reaction buffer. […]
Sequence of DDX3X (O00571 whole entry): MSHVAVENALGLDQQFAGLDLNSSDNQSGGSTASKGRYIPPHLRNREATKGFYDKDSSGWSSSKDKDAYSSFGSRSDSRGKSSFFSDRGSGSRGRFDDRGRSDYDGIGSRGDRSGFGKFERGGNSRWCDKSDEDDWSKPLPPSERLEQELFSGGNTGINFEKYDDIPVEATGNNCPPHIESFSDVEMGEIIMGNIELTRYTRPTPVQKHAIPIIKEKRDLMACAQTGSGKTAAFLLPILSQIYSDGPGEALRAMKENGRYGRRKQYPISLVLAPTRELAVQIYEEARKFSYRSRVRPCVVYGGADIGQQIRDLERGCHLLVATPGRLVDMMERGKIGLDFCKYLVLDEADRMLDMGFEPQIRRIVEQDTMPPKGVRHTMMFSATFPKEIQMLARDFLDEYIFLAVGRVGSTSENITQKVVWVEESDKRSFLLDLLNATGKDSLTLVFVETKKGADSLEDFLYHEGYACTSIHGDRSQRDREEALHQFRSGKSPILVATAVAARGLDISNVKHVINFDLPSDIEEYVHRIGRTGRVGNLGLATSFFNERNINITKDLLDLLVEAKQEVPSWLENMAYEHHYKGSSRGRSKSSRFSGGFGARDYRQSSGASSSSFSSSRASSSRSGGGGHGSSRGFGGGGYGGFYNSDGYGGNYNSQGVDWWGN
Ultimately, reactions were performed in a final volume 100 µl of helicase reaction buffer plus ATP 4 mM, 30 µl of beads used to immunoprecipitate HA-DDX3X, 20 nM of 18/36mer dsRNA and 100 nM of competitor at 37°C for 1 hour and stopped by adding 10 µl of a stopping solution (EDTA 60 mM pH=8, 40% glycerol, 0.6% SDS, 1% Orange G). […] Quantification of the ssRNA was performed by the ImageJ software (version 1.53, NIH). […]

As for `CCCCc1cn(-c2ccc(-c3nnc(-c4cccc(C(=O)O)c4)o3)cc2)nn1` [Compound 16, 3-(5-(4-(4-butyl-1H-1,2,3-triazol-1-yl)phenyl)-1,3,4-oxadiazol-2-yl)benzoic acid], half-maximal inhibition in experiment [1] (IC50) required 18.1 µM. For the same compound, in experiment [2], the “inhibitory effect on DDX3X helicase activity” value is “inhibitory effect on DDX3X helicase activity”.
